# Laboratory results as given in patent publication US9284321B2, “Piperazino[1,2-a]indol-1-ones and [1,4]diazepino[1,2-a]indol-1-one” (Hoffmann-La Roche Inc., priority 2012, dated 2016).
# Legend:
# [1] = test system: human embryonic stem cell derived neural stem cells (NSCs); assay: Neural Stem Cell Proliferation Assay (neurogenesis assay, ATP levels by CellTiterGlo); assay type: cell-based; settings: 96 h, compound concentration at which 150% activity of control (100%) is reached, NSC proliferation by ATP level after 4 days incubation, dose response 8 μM to 8 nM
# Procedure, shortened: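 Human ESC-derived NSCs (dual SMAD inhibition) seeded 4 h before compounds, 11-point 2-fold series 8 μM–8 nM; 4 days at 37 °C, 5% CO2. ATP by CellTiterGlo luminescence as cell-number proxy, response as % of media control (0.25% DMSO); EC150 = concentration giving 150% of control.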
melting point [°C],Structure (SMILES),EC (150% of control) [1] [µM]
199,"Cc1c2n(c3c(-c4cccc(C#N)c4)cc(Cl)cc13)CCNC2=O [Example 117, 3-(8-Chloro-10-methyl-1-oxo-1,2,3,4-tetrahydro-pyrazino[1,2-a]indol-6-yl)-benzonitrile]",0.4
252,"Cc1c2n(c3c(-c4ccc(C(C)(C)C)cc4)cc(Cl)cc13)CCNC2=O [Example 118, 6-(4-tert-Butyl-phenyl)-8-chloro-10-methyl-3,4-dihydro-2H-pyrazino[1,2-a]indol-1-one]",0.15
270,"Cc1c2n(c3c(-c4ccnc(Cl)c4)cc(Cl)cc13)CCNC2=O [Example 119, 8-Chloro-6-(2-chloro-pyridin-4-yl)-10-methyl-3,4-dihydro-2H-pyrazino[1,2-a]indol-1-one]",0.16
214,"Cc1c2n(c3c(-c4ccc(Cl)cc4Cl)cc(F)cc13)CCNC2=O [Example 120, 6-(2,4-Dichloro-phenyl)-8-fluoro-10-methyl-3,4-dihydro-2H-pyrazino[1,2-a]indol-1-one]",0.01
221,"Cc1c2n(c3c(-c4ccc(Cl)cc4F)cc(F)cc13)CCNC2=O [Example 121, 6-(4-Chloro-2-fluoro-phenyl)-8-fluoro-10-methyl-3,4-dihydro-2H-pyrazino[1,2-a]indol-1-one]",0.01
204,"Cc1c2n(c3c(-c4ccc(F)cc4F)cc(F)cc13)CCNC2=O [Example 122, 6-(2,4-Difluoro-phenyl)-8-fluoro-10-methyl-3,4-dihydro-2H-pyrazino[1,2-a]indol-1-one]",0.013
206,"Cc1c2n(c3c(-c4ccc5c(c4)OCO5)cc(F)cc13)CCNC2=O [Example 123, 6-Benzo[1,3]dioxol-5-yl-8-fluoro-10-methyl-3,4-dihydro-2H-pyrazino[1,2-a]indol-1-one]",0.031
295,"Cc1c2n(c3c(-c4ccc(C#N)cc4)cc(F)cc13)CCNC2=O [Example 124, 4-(8-Fluoro-10-methyl-1-oxo-1,2,3,4-tetrahydro-pyrazino[1,2-a]indol-6-yl)-benzonitrile]",0.023
292,"Cc1c2n(c3c(-c4ccc(S(C)(=O)=O)cc4)cc(F)cc13)CCNC2=O [Example 125, 8-Fluoro-6-(4-methanesulfonyl-phenyl)-10-methyl-3,4-dihydro-2H-1-pyrazino[1,2-a]indol-1-one]",0.015
309,"Cc1c2n(c3c(-c4ccc([N+](=O)[O-])cc4)cc(F)cc13)CCNC2=O [Example 126, 8-Fluoro-10-methyl-6-(4-nitro-phenyl)-3,4-dihydro-2H-pyrazino[1,2-a]indol-1-one]",0.01
177,"Cc1c2n(c3c(-c4ccc(C(C)C)cc4)cc(F)cc13)CCNC2=O [Example 127, 8-Fluoro-6-(4-isopropyl-phenyl)-10-methyl-3,4-dihydro-2H-pyrazino[1,2-a]indol-1-one]",0.025
182,"Cc1c2n(c3c(-c4cccc(Cl)c4)cc(F)cc13)CCNC2=O [Example 128, 6-(3-Chloro-phenyl)-8-fluoro-10-methyl-3,4-dihydro-2H-pyrazino[1,2-a]indol-1-one]",0.22
251,"Cc1c2n(c3c(-c4ccc5c(c4)CCO5)cc(F)cc13)CCNC2=O [Example 129, 6-(2,3-Dihydro-benzofuran-5-yl)-8-fluoro-10-methyl-3,4-dihydro-2H-pyrazino[1,2-a]indol-1-one]",0.022
220,"Cc1c2n(c3c(-c4ccc(CO)cc4)cc(F)cc13)CCNC2=O [Example 130, 8-Fluoro-6-(4-hydroxymethyl-phenyl)-10-methyl-3,4-dihydro-2H-pyrazino[1,2-a]indol-1-one]",0.011
192,"Cc1c2n(c3c(-c4cccc(C#N)c4)cc(F)cc13)CCNC2=O [Example 131, 3-(8-Fluoro-10-methyl-1-oxo-1,2,3,4-tetrahydro-pyrazino[1,2-a]indol-6-yl)-benzonitrile]",0.33
216,"Cc1c2n(c3c(-c4ccc(C(C)(C)C)cc4)cc(F)cc13)CCNC2=O [Example 132, 6-(4-tert-Butyl-phenyl)-8-fluoro-10-methyl-3,4-dihydro-2H-pyrazino[1,2-a]indol-1-one]",0.046
212,"Cc1c2n(c3c(-c4ccc(OC(F)(F)F)cc4)cc(Cl)cc13)CCNC2=O [Example 133, 8-Chloro-10-methyl-6-(4-trifluoromethoxy-phenyl)-3,4-dihydro-2H-pyrazino[1,2-a]indol-1-one]",0.004

melting point [°C],Structure (SMILES),EC (150% of control) [1] [µM]
235.5,"Cc1cc(-c2cc(Cl)cc3c(C)c4n(c23)CCNC4=O)ccc1F [Example 134, 8-Chloro-6-(4-fluoro-3-methyl-phenyl)-10-methyl-3,4-dihydro-2H-pyrazino[1,2-a]indol-1-one]",0.083
268,"Cc1c2n(c3c(-c4ccc(Cl)c(C(F)(F)F)c4)cc(Cl)cc13)CCNC2=O [Example 135, 8-Chloro-6-(4-chloro-3-trifluoromethyl-phenyl)-10-methyl-3,4-dihydro-2H-pyrazino[1,2-a]indol-1-one]",0.036
253,"Cc1c2n(c3c(-c4cc(F)c(F)c(F)c4)cc(Cl)cc13)CCNC2=O [Example 136, 8-Chloro-10-methyl-6-(3,4,5-trifluoro-phenyl)-3,4-dihydro-2H-pyrazino[1,2-a]indol-1-one]",0.021
252.5,"Cc1c2n(c3c(-c4cccnc4)cc(Cl)cc13)CCNC2=O [Example 137, 8-Chloro-10-methyl-6-pyridin-3-yl-3,4-dihydro-2H-pyrazino[1,2-a]indol-1-one]",0.088
306,"Cc1c2n(c3c(-c4cncnc4)cc(Cl)cc13)CCNC2=O [Example 138, 8-Chloro-10-methyl-6-pyrimidin-5-yl-3,4-dihydro-2H-pyrazino[1,2-a]indol-1-one]",0.21
240,"Cc1c2n(c3c(-c4ccnc(F)c4)cc(F)cc13)CCNC2=O [Example 139, 8-Fluoro-6-(2-fluoro-pyridin-4-yl)-10-methyl-3,4-dihydro-2H-pyrazino[1,2-a]indol-1-one]",0.027
254,"Cc1c2n(c3c(-c4ccnc(Cl)c4)cc(F)cc13)CCNC2=O [Example 140, 6-(2-Chloro-pyridin-4-yl)-8-fluoro-10-methyl-3,4-dihydro-2H-pyrazino[1,2-a]indol-1-one]",0.12
247,"Cc1c2n(c3c(-c4ccc(F)nc4)cc(F)cc13)CCNC2=O [Example 141, 8-Fluoro-6-(6-fluoro-pyridin-3-yl)-10-methyl-3,4-dihydro-2H-pyrazino[1,2-a]indol-1-one]",0.13
270.5,"COc1ncc(-c2cc(Cl)cc3c(C)c4n(c23)CCNC4=O)cn1 [Example 142, 8-Chloro-6-(2-methoxy-pyrimidin-5-yl)-10-methyl-3,4-dihydro-2H-pyrazino[1,2-a]indol-1-one]",0.039
316,"Cc1c2n(c3c(-c4cnc(N)nc4)cc(Cl)cc13)CCNC2=O [Example 143, 6-(2-Amino-pyrimidin-5-yl)-8-chloro-10-methyl-3,4-dihydro-2H-pyrazino[1,2-a]indol-1-one]",0.32
256,"Cc1c2n(c3c(-c4ccc(N(C)C)cc4)cc(F)cc13)CCNC2=O [Example 145, 6-(4-Dimethylamino-phenyl)-8-fluoro-10-methyl-3,4-dihydro-2H-pyrazino[1,2-a]indol-1-one]",0.017
226,"COc1ccc(-c2cc(F)cc3c(C)c4n(c23)CCNC4=O)cn1 [Example 146, 8-Fluoro-6-(6-methoxy-pyridin-3-yl)-10-methyl-3,4-dihydro-2H-pyrazino[1,2-a]indol-1-one]",0.02
206,"Cc1ccc(-c2cc(F)cc3c(C)c4n(c23)CCNC4=O)cc1F [Example 147, 8-Fluoro-6-(3-fluoro-4-methyl-phenyl)-10-methyl-3,4-dihydro-2H-pyrazino[1,2-a]indol-1-one]",0.039
236,"Cc1cc(-c2cc(F)cc3c(C)c4n(c23)CCNC4=O)ccc1F [Example 148, 8-Fluoro-6-(4-fluoro-3-methyl-phenyl)-10-methyl-3,4-dihydro-2H-pyrazino[1,2-a]indol-1-one]",0.078
162,"Cc1c2n(c3c(-c4ccc(OC(F)(F)F)cc4)cc(F)cc13)CCNC2=O [Example 149, 8-Fluoro-10-methyl-6-(4-trifluoromethoxy-phenyl)-3,4-dihydro-2H-pyrazino[1,2-a]indol-1-one]",0.016
240,"Cc1c2n(c3c(-c4ccc(Cl)c(C(F)(F)F)c4)cc(F)cc13)CCNC2=O [Example 150, 6-(4-Chloro-3-trifluoromethyl-phenyl)-8-fluoro-10-methyl-3,4-dihydro-2H-pyrazino[1,2-a]indol-1-one]",0.61
130,"Cc1c2n(c3c(-c4ccc(F)c(F)c4F)cc(F)cc13)CCNC2=O [Example 151, 8-Fluoro-10-methyl-6-(2,3,4-trifluoro-phenyl)-3,4-dihydro-2H-pyrazino[1,2-a]indol-1-one]",0.035
